For series [1], the target named is GluN1/GluN2A receptors (Homo sapiens, UniProt Q05586+Q12879). The experiment in a line: Screening of FDA-approved NMDAR antagonists, TEVC oocyte recordings, wild type. It counts as cell-based.
Series [2] addresses GluN1/GluN2A-N615K receptors (Homo sapiens, UniProt Q05586+Q12879, N615K). Format: cell-based.
Series [3] concerns the target T1, GluN1/GluN2A-L812M receptors (Homo sapiens, UniProt Q05586+Q12879, L812M). Format: cell-based.
Series [4] concerns the target T1, GluN1/GluN2A-L812M receptors. Description: Agonist potency, TEVC recordings from Xenopus laevis oocytes, L812M mutant. It counts as cell-based.
The test system of series [5] is seizures of the proband. The experiment in a line: Antiepileptic treatment of the proband. It counts as in vivo, human.
For series [6] the following is noted: used in children; cited from earlier work.
The test system of series [7] is animal models of epilepsy. As to conditions: wide range of animal models of epilepsy; cited from earlier work.
Setting [8] is: read-out: percent maximal inhibition.

For orientation: IC50 means the concentration that gives 50% inhibition. Read a high IC50 as weaker potency in that assay. A word on the inhibition: it is the percentage by which the read-out fell short of the control. As a reminder, the EC50 is the concentration that produces a half-maximal response.

SMILES strings stand for the structures.

For `NC12CC3CC(CC(C3)C1)C2` [Amantadine], the IC50 in series [1] worked out at 110 ± 11 µM; in series [2], 458 ± 25 µM; in series [3], 113 ± 5.1 µM. The inhibition at 1000 µM in series [1] (setting [8]) is 94%; in series [2] (setting [8]) it was 76%; in series [3] (setting [8]), 88%.
Turning to `NCC(=O)O` [Glycine], the “reduction in EC50 (increased potency), GluN2A-L812M vs wild type” value in series [4] (L812M compared with wild type) is given as “eightfold”. The EC50 in series [4] (read-out: Glycine EC50, L812M, in the presence of 100 μmol/L glutamate, -40 mV) was found to be 0.14 ± 0.01 µM.
For `CC12CC3CC(C)(C1)CC(N)(C3)C2` [Memantine], the cognitive ability entry in series [5] (memantine treatment) is recorded as “remained unchanged”. Besides, the “interictal EEG after treatment” value in series [5] (postmemantine EEG, wakefulness and sleep) is on record as “no asymmetries or epileptiform discharges”. Moreover, in series [5] (upon memantine treatment), the myoclonic jerks entry was “ceased”. For the same compound, the side effects result in series [5] (~0.5 mg/kg per day) is given as “without side effects”. The inhibition at 100 µM was 89% in series [1] (setting [8]), 69% in series [2] (setting [8]) and 87% in series [3] (setting [8]). In series [6], the toxicity in children entry is reported as “without toxicity”. Besides, the anticonvulsant effects result in series [7] is recorded as “anticonvulsant effects”.
On to `COc1ccc2c(c1)[C@]13CCCC[C@@H]1[C@H](C2)N(C)CC3` [Dextromethorphan], for which the inhibition at 300 µM in series [1] (setting [8]) was 88%; in series [2] (setting [8]), 92%; in series [3] (setting [8]), 91%. The values for the IC50 in series [2] and in series [3] were 9 ± 1.3 µM and 33 ± 4.8 µM, respectively. Further, the “enhanced potency on N615K-containing NMDARs in comparison to wild-type NMDARs” value in series [2] (N615K compared with wild type) is reported as “twofold”.
On to `CN1CC[C@@]23CCCC[C@@H]2[C@@H]1Cc1ccc(O)cc13` [Dextrorphan], for which the 50% inhibitory concentration (IC50) in series [1] is 1.9 ± 0.3 µM; in series [2], 0.34 ± 0.06 µM; in series [3], 6.1 ± 1.3 µM. Besides, the values for the inhibition at 30 µM in series [1] (setting [8]), in series [2] (setting [8]) and in series [3] (setting [8]) were 92%, 96% and 85%, respectively.

The values are drawn from PMC4019449 (Annals of Clinical and Translational Neurology, 2014).
